In ChEMBL document CHEMBL1145312, “Structure-activity relationships of triazolopyridine oxazole p38 inhibitors: identification of candidates for clinical development” (Bioorg Med Chem Lett, 2006):

Experiments:
[1] = target: Protein kinase C alpha type (Homo sapiens, UniProt P17252); assay: Inhibition of PKCalpha
[2] = target: T1, Serine/threonine-protein kinase Chk1 (Homo sapiens, UniProt O14757); assay: Inhibition of CHK1
T1 sequence (O14757 whole entry): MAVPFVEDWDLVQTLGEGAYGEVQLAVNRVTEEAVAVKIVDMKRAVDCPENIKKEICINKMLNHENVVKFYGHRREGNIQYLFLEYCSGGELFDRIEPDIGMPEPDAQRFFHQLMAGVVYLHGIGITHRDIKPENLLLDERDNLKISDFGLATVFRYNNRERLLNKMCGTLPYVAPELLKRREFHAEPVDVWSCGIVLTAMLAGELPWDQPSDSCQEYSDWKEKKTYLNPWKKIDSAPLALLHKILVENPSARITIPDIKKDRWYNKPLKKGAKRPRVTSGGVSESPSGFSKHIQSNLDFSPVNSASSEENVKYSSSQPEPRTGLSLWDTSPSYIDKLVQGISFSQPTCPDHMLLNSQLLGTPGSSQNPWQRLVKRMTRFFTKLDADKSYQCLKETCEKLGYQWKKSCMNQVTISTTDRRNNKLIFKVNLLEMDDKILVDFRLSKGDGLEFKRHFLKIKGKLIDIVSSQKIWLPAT

[3] = target: Mitogen-activated protein kinase 1 (Homo sapiens, UniProt P28482); assay: Inhibition of ERK2
Sequence of Mitogen-activated protein kinase 1 (P28482 whole entry): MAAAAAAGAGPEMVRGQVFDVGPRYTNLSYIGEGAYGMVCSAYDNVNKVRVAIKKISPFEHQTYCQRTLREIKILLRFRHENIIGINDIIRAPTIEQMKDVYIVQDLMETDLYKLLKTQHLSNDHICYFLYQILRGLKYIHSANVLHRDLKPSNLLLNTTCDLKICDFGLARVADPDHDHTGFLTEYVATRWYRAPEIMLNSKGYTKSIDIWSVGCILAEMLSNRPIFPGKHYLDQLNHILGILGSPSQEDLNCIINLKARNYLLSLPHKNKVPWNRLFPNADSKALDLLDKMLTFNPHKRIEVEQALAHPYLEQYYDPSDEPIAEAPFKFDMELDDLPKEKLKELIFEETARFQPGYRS

[4] = target: Rho-associated protein kinase 2 (Homo sapiens, UniProt O75116); assay: Inhibition of ROCK2
[5] = target: Ribosomal protein S6 kinase (P70S6K) (Homo sapiens, UniProt P23443+Q9UBS0); assay: Inhibition of P70S6K; type: protein-complex assay
Sequence of Ribosomal protein S6 kinase (P70S6K) (Q9UBS0 whole entry): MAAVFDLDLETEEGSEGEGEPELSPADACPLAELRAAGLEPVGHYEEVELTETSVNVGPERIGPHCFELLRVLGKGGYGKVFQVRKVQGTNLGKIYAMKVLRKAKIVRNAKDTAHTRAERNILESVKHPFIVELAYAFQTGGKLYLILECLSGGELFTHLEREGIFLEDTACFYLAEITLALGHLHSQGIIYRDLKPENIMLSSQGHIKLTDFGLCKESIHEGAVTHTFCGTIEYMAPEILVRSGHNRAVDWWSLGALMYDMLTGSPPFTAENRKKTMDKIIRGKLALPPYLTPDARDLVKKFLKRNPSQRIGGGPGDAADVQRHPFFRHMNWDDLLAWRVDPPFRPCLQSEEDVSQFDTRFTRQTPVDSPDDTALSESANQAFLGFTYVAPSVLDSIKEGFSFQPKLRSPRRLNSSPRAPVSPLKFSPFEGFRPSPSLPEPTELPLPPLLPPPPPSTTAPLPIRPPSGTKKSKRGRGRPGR
Sequence of Ribosomal protein S6 kinase (P70S6K) (P23443 whole entry): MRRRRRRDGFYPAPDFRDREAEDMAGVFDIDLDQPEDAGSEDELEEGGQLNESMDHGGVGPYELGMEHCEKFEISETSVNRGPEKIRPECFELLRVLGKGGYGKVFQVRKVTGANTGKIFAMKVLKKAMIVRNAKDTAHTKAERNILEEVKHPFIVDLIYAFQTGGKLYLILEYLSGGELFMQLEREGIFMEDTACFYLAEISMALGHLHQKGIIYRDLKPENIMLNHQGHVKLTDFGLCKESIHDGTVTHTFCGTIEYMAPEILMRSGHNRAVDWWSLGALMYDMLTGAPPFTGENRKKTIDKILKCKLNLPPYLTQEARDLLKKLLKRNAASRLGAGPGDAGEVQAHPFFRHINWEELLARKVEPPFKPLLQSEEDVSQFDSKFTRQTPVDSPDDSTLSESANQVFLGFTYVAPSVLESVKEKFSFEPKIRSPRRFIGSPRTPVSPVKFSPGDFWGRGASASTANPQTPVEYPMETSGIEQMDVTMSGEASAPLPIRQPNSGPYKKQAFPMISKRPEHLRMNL

[6] = target: T2, 3-phosphoinositide-dependent protein kinase 1 (Homo sapiens, UniProt O15530); assay: Inhibition of PDK1
T2 sequence (O15530 whole entry): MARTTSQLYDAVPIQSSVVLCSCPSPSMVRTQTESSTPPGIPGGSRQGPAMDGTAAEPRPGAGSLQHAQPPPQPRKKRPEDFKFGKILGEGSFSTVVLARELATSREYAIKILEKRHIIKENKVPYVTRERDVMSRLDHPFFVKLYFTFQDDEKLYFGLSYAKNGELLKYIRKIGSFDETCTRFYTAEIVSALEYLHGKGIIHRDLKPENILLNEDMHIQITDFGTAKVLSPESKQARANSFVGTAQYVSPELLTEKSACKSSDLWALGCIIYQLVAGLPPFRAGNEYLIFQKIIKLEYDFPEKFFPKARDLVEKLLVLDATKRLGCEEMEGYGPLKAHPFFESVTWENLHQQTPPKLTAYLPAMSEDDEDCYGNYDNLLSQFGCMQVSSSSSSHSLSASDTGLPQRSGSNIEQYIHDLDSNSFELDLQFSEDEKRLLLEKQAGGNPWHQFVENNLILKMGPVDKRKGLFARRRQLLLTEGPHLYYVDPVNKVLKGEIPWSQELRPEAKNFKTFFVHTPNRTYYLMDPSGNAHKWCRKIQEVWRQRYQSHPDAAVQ

[7] = target: Dual specificity mitogen-activated protein kinase kinase 1 (Homo sapiens, UniProt Q02750); assay: Inhibition of MKK1
Sequence of Dual specificity mitogen-activated protein kinase kinase 1 (Q02750 whole entry): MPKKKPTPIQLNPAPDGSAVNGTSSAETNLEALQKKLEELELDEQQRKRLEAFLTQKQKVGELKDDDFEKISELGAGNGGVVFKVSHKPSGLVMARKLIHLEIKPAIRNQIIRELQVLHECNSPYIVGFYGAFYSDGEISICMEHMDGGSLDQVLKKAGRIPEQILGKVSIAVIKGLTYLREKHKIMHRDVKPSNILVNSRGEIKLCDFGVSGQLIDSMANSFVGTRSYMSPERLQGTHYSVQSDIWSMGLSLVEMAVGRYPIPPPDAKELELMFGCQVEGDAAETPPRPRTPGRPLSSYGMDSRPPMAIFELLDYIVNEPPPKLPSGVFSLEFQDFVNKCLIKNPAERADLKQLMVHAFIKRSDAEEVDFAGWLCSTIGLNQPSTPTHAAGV

[8] = Inhibition of PKC
[9] = target: T3, Serine/threonine-protein kinase Sgk1 (Homo sapiens, UniProt O00141); assay: Inhibition of SGK
T3 sequence (O00141 whole entry): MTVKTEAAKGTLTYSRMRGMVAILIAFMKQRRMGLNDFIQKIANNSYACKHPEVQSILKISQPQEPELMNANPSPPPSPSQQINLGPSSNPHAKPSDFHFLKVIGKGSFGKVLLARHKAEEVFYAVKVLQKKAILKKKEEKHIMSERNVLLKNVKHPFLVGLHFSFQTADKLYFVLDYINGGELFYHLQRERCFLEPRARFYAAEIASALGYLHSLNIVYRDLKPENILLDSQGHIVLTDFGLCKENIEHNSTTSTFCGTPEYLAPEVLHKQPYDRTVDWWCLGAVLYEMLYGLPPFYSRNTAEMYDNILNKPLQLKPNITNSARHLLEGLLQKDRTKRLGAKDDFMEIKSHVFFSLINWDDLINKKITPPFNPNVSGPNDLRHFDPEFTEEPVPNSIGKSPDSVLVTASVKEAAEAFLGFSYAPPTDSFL

[10] = target: Tyrosine-protein kinase CSK (Homo sapiens, UniProt P41240); assay: Inhibition of CSK
Sequence of Tyrosine-protein kinase CSK (P41240 whole entry): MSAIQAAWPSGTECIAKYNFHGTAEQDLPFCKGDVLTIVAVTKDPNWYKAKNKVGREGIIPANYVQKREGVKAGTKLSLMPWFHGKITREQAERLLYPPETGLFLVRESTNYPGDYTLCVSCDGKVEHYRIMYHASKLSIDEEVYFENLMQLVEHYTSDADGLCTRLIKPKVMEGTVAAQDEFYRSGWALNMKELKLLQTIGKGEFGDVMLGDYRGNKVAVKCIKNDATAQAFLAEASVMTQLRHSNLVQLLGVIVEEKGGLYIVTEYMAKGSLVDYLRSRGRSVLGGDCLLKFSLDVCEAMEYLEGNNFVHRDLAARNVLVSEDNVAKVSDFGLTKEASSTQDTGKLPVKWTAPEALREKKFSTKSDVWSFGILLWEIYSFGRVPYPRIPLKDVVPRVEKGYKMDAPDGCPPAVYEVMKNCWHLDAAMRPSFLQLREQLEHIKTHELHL

Monocyte = assay: Inhibition of LPS-induced TNFalpha production in human monocytes; type: functional, cell-based
[11] = target: Tyrosine-protein kinase Lck (Homo sapiens, UniProt P06239); assay: Inhibition of Lck
Sequence of Tyrosine-protein kinase Lck (P06239 whole entry): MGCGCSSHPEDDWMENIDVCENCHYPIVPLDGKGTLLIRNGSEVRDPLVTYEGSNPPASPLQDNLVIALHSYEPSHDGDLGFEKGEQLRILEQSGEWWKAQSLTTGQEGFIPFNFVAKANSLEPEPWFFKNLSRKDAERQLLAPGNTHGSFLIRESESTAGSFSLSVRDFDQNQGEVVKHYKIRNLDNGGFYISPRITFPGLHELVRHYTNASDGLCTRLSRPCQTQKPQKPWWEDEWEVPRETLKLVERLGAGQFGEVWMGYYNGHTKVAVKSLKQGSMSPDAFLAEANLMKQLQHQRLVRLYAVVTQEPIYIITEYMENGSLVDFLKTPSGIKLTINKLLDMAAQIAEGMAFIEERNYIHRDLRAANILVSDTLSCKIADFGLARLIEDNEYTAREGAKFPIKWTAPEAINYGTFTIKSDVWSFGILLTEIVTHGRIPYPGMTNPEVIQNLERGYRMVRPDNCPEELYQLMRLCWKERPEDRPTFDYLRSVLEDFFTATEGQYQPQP

[12] = target: Cyclin-dependent kinase 2 (Homo sapiens, UniProt P24941); assay: Inhibition of CDK2
[13] = Inhibition of PI3K
[14] = target: MAP kinase-activated protein kinase 2 (Homo sapiens, UniProt P49137); assay: Inhibition of MAPKAP-K2
[15] = target: Glycogen synthase kinase-3 beta (Homo sapiens, UniProt P49841); assay: Inhibition of GSK3-beta
Sequence of Glycogen synthase kinase-3 beta (P49841 whole entry): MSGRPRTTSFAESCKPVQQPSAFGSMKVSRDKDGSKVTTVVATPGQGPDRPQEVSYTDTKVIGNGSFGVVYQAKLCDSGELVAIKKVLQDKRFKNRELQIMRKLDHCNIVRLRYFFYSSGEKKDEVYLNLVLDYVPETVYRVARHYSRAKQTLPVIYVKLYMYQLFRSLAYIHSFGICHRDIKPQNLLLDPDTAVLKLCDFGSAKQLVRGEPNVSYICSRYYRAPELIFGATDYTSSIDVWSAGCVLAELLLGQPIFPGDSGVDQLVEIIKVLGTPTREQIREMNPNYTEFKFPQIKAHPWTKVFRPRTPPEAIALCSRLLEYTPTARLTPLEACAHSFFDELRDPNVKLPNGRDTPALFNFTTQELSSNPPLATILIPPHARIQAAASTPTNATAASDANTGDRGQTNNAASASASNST

[16] = target: T4, Mitogen-activated protein kinase 13 (Homo sapiens, UniProt O15264); assay: Inhibition of p38delta
T4 sequence (O15264 whole entry): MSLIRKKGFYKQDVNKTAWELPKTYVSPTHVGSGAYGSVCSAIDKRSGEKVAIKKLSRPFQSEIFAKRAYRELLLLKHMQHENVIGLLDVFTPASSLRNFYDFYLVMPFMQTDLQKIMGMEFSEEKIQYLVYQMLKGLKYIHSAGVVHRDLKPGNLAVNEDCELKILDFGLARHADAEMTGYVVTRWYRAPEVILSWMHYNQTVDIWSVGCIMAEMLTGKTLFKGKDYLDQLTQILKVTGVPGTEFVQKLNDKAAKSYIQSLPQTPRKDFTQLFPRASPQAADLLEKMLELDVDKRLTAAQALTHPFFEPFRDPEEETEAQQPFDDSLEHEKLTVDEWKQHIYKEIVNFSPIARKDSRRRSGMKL

[17] = target: AMP-activated protein kinase, AMPK; assay: Inhibition of AMPK; type: protein-complex assay
Homo sapiens = species on record: Homo sapiens; assay: Inhibition of LPS-induced TNFalpha production in human whole blood; type: functional, organism-based
[18] = target: Ribosomal protein S6 kinase alpha-5 (Homo sapiens, UniProt O75582); assay: Inhibition of MSK1
Sequence of Ribosomal protein S6 kinase alpha-5 (O75582 whole entry): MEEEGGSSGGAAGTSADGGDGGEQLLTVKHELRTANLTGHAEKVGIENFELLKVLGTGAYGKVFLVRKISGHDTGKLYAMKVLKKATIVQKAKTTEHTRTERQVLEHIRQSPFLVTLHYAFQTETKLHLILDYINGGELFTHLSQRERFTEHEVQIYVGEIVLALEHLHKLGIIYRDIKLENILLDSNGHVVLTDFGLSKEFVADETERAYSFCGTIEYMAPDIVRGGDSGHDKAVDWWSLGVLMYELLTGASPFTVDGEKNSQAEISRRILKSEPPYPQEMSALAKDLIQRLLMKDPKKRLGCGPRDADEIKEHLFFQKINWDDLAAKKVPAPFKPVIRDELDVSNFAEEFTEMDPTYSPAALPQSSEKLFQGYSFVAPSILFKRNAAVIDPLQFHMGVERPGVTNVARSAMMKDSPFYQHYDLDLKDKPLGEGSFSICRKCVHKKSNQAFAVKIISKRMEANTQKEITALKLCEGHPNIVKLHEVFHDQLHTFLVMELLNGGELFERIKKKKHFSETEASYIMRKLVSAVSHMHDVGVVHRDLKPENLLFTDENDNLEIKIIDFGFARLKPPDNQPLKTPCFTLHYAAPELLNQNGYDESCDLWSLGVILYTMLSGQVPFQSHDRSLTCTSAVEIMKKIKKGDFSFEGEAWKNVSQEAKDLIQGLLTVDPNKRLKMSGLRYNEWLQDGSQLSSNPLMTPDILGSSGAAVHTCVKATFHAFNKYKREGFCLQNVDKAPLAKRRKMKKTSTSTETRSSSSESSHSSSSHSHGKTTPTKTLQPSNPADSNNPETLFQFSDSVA

[19] = target: Ribosomal protein S6 kinase alpha-1 (Homo sapiens, UniProt Q15418); assay: Inhibition of MAPKAP-K1a
[20] = target: Mitogen-activated protein kinase 14 (Homo sapiens, UniProt Q16539); assay: Inhibition of p38alpha
Sequence of Mitogen-activated protein kinase 14 (Q16539 whole entry): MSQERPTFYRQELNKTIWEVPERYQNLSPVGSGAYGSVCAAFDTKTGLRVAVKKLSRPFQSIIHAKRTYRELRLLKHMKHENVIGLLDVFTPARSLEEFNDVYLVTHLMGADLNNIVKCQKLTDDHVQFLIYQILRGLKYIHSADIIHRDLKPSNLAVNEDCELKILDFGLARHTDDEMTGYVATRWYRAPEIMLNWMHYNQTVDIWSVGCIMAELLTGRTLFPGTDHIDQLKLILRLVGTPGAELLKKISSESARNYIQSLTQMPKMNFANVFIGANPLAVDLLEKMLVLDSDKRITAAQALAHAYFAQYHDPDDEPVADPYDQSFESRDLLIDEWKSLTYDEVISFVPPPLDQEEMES

SMILES	IC50 [1] [µM]	IC50 [2] [µM]	IC50 [3] [µM]	IC50 [4] [µM]	IC50 [5] [µM]	IC50 [6] [µM]	IC50 [7] [µM]	IC50 [8] [µM]	IC50 [9] [µM]	IC50 [10] [µM]	IC50 (Monocyte) [µM]	IC50 [12] [µM]	IC50 [13] [µM]	IC50 [14] [µM]	IC50 [15] [µM]	IC50 [16] [µM]	IC50 [17] [µM]	IC50 (Homo sapiens) [µM]	IC50 [18] [µM]	IC50 [19] [µM]	also measured
CC(C)(C)c1nnc2ccc(-c3ocnc3-c3ccc(F)cc3F)cn12	> 10	> 10	> 10	> 10	> 10	> 10	> 10	> 10	> 10	> 10	0.0126	> 10	> 10	> 10	> 10	> 10	> 10	0.076	> 10	> 10	IC50 [11]: > 10 µM; IC50 [20]: 0.0011 µM
CC(C)(C)c1nnc2ccc(-c3ocnc3-c3cc(F)c(F)cc3F)cn12	> 10	> 10	> 10	> 10	> 10	> 10	> 10	> 10	> 10	> 10	0.0083	> 10	> 10	> 10	> 10	> 10	> 10	0.063	> 10	> 10	IC50 [20]: 0.0018 µM
CCNc1nnc2ccc(-c3ocnc3-c3ccc(F)cc3)cn12	> 10	> 10	> 10	> 10	> 10	> 10	> 10	> 10	> 10	> 10	0.052	> 10	> 10	> 10	> 10	> 10	> 10	0.865	> 10	> 10	IC50 [11]: > 10 µM; IC50 [20]: 0.0076 µM
CC(C)c1nnc2ccc(-c3c[nH]nc3-c3cc(F)ccc3F)cn12	> 10	> 10	> 10	> 10	> 10	> 10	> 10	> 10	> 10	> 10	0.0141	> 10	> 10	> 10	> 10	> 10	> 10	0.18	> 10	> 10	IC50 [11]: > 10 µM; IC50 [20]: 0.0028 µM
CC(C)c1nnc2ccc(-c3ocnc3-c3ccccc3)cn12	> 10	> 10	> 10	> 10	> 10	> 10	> 10	> 10	> 10	> 10	0.0714	> 10	> 10	> 10	> 10	> 10	> 10	0.973	> 10	> 10	IC50 [20]: 0.0096 µM
